Results on 16 compounds are retold here after patent publication US20140309265A1, “MACROCYCLIC COMPOUNDS FOR INHIBITION OF INHIBITORS OF APOPTOSIS” (Ensemble Therapeutics, priority 2011, published 2014).

What all share (type): binding
In assay [1] the target is N-His-Tb-BIR3(241-356, XIAP) (Homo sapiens, UniProt P98170). Briefly: XIAP-BIR3 SMAC Peptide Fluorescence Polarization Assay (FPA).
The target in assay [2] is T1, XIAP His-BIR2 (124-240/C202A/C213G) (Homo sapiens, UniProt P98170, C202A/C213G).
T1 construct: additions of His-BIR2 (124-240/C202A/C213G), Biotinylated SMAC peptide
T1 sequence (P98170 124-240 C202A/C213G): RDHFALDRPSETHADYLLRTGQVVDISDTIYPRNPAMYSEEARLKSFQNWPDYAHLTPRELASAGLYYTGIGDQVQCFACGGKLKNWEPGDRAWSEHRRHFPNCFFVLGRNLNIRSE
Nature of the assay: XIAP-BIR2/SMAC Peptide AlphaScreen Assay. How it is done:
A. XIAP-BIR2/SMAC Peptide AlphaScreen Assay Assays were performed in white, flat-bottom, 384-well ProxiPlates (Perkin Elmer). […] The reaction was incubated at room temperature for 60 minutes. After 60 minutes, 2.5 μL of Alphascreen detection reagent (Perkin Elmer) was added to the reaction mixture and incubated at room temperature in the dark for 120 minutes. The Alphascreen signal generated by the reaction was detected on the Envision Plate Reader. […] Compounds were dissolved at 10 mM in dimethylsulfoxide (DMSO) and evaluated at eleven concentrations. IC50 values were derived by non-linear regression analysis.
On the technique in general: Bead proximity is the source of the signal in Alpha formats.

In assay [3] the target is T2, His-BIR2-3 (125-356, C202A/C213G, XIAP) (Homo sapiens, UniProt P98170, C202A/C213G).
T2 construct: additions of His-BIR2-3 (125-356, C202A/C213G, XIAP), fluorescein labeled dimeric SMAC peptide
T2 sequence (P98170 125-356 C202A/C213G): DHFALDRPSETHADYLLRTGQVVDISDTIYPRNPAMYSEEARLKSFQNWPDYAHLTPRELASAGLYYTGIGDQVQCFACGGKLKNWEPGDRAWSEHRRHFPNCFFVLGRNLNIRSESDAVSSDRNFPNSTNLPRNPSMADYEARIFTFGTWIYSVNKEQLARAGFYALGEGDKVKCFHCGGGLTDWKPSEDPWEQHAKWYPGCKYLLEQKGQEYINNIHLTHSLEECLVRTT
Briefly: XIAP-BIR2-3 Dimeric SMAC Peptide Homogeneous Time Resolved Fluorescence (HTRF) Assay. As to conditions: XIAP BIR2-3, HTRF, Table 4. (TR-FRET usually uses a lanthanide donor and a delayed reading to cut background.)

The target of another assay is T3, His-BIR3 (241-356, XIAP) (Homo sapiens, UniProt P98170).
T3 construct: additions of His-BIR3 (241-356, XIAP), fluorescein labeled SMAC peptide
T3 sequence (P98170 241-356): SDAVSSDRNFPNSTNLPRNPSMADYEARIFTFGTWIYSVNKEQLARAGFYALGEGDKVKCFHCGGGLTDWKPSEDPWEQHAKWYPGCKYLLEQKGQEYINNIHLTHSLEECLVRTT
Nature of the assay: XIAP-BIR3/SMAC Homogeneous Time Resolved Fluorescence (HTRF) Assay. As to conditions: Table 4.

[4] abbreviates: XIAP BIR2, AlphaScreen, Table 2, read-out: BIR2 IC50.

Like-named read-outs stand apart in the source and are kept apart here. Where only a bound is given, the exact number is not on record here.

Chain of N-His-Tb-BIR3(241-356, XIAP) (P98170 241-356): as above

Usually IC50 stands for the concentration at which inhibition is half-maximal. Take `CN[C@@H](C)C(=O)N[C@H](C(=O)N1C[C@@H]2C[C@H]1C(=O)N[C@@H](Cc1ccc3ccccc3c1)C(=O)N[C@H](C(=O)O)Cc1ccc(cc1)OCc1cn(nn1)[C@H]1C[C@@H](C(=O)N[C@@H](Cc3ccc4ccccc4c3)C(=O)N[C@H](C(=O)NS(C)(=O)=O)Cc3ccc(cc3)OCc3cn2nn3)N(C(=O)[C@@H](NC(=O)[C@H](C)NC)C(C)(C)C)C1)C(C)(C)C` [Compound 1002]: the half-inhibitory concentration (IC50) is under 50 nM in assay [1] and under 2000 nM in assay [2] (XIAP BIR2, Alphascreen, Table 4, read-out: BIR2 Alpha Screen IC50).
Take `CN[C@@H](C)C(=O)N[C@H](C(=O)N1C[C@@H]2C[C@H]1C(=O)N[C@@H](Cc1ccccc1)C(=O)N[C@H](C(=O)O)Cc1ccc(cc1)OCc1cn(nn1)[C@H]1C[C@@H](C(=O)N[C@@H](Cc3ccccc3)C(=O)N[C@H](C(=O)O)Cc3ccc(cc3)OCc3cn2nn3)N(C(=O)[C@@H](NC(=O)[C@H](C)NC)C(C)C)C1)C(C)C` [Compound 101]: the 50% inhibitory concentration (IC50) in assay [1] is 50 to 100 nM; in assay [2] (setting [4]), under 2000 nM.
On the same counts, the results for `CN[C@@H](C)C(=O)N[C@H](C(=O)N1C[C@@H]2C[C@H]1C(=O)N[C@@H](Cc1ccccc1)C(=O)N(C)[C@H](C(=O)O)Cc1ccc(cc1)OCc1cn(nn1)[C@H]1C[C@@H](C(=O)N[C@@H](Cc3ccccc3)C(=O)N(C)[C@H](C(=O)O)Cc3ccc(cc3)OCc3cn2nn3)N(C(=O)[C@@H](NC(=O)[C@H](C)NC)C(C)C)C1)C(C)C` [Compound 133] are under 50 nM and under 2000 nM.
Taken in the same sequence, the figures for `CN[C@@H](C)C(=O)N[C@H](C(=O)N1C[C@@H]2C[C@H]1C(=O)N[C@@H](Cc1cccc(C(F)(F)F)c1)C(=O)N[C@H](C(=O)O)Cc1ccc(cc1)OCc1cn(nn1)[C@H]1C[C@@H](C(=O)N[C@@H](Cc3cccc(C(F)(F)F)c3)C(=O)N[C@H](C(=O)O)Cc3ccc(cc3)OCc3cn2nn3)N(C(=O)[C@@H](NC(=O)[C@H](C)NC)C(C)(C)C)C1)C(C)(C)C` [Compound 129] were under 50 nM and under 2000 nM.
Taken in the same sequence, the figures for `CN[C@@H](C)C(=O)N[C@H](C(=O)N1C[C@@H]2C[C@H]1C(=O)N[C@@H](COCc1ccccc1)C(=O)N[C@H](C(=O)O)Cc1ccc(cc1)OCc1cn(nn1)[C@H]1C[C@@H](C(=O)N[C@@H](COCc3ccccc3)C(=O)N[C@H](C(=O)O)Cc3ccc(cc3)OCc3cn2nn3)N(C(=O)[C@@H](NC(=O)[C@H](C)NC)C(C)C)C1)C(C)C` [Compound 123] were over 100 nM and 2000 to 12000 nM.
With `CN[C@@H](C)C(=O)N[C@H](C(=O)N1C[C@@H]2C[C@H]1C(=O)N[C@@H](Cc1ccccc1)C(=O)N[C@H](C(=O)N1CCN(C)CC1)Cc1ccc(cc1)OCc1cn(nn1)[C@H]1C[C@@H](C(=O)N[C@@H](Cc3ccccc3)C(=O)N[C@H](C(=O)N3CCN(C)CC3)Cc3ccc(cc3)OCc3cn2nn3)N(C(=O)[C@@H](NC(=O)[C@H](C)NC)C(C)C)C1)C(C)C` [Compound 104], the half-inhibitory concentration (IC50) in assay [1] was 50 to 100 nM; in assay [2] (setting [4]), over 12000 nM.
On the same counts, the results for `CN[C@@H](C)C(=O)N[C@H](C(=O)N1C[C@@H]2C[C@H]1C(=O)N[C@@H](Cc1cccc(C(F)(F)F)c1)C(=O)N[C@H](C(=O)O)Cc1ccc(cc1)COc1cn(nn1)[C@H]1C[C@@H](C(=O)N[C@@H](Cc3cccc(C(F)(F)F)c3)C(=O)N[C@H](C(=O)O)Cc3ccc(cc3)OCc3cn2nn3)N(C(=O)[C@@H](NC(=O)[C@H](C)NC)C(C)C)C1)C(C)C` [Compound 112] are under 50 nM and 2000 to 12000 nM.
Turning to `CN[C@@H](C)C(=O)N[C@H](C(=O)N1CC2C[C@H]1C(=O)N[C@@H](Cc1ccc3ccccc3c1)C(=O)N[C@H](C(=O)O)Cc1cn(nn1)[C@H]1C[C@@H](C(=O)N[C@@H](Cc3ccc4ccccc4c3)C(=O)N[C@H](C(=O)O)Cc3cn2nn3)N(C(=O)[C@@H](NC(=O)[C@H](C)NC)C(C)C)C1)C(C)C` [Compound 140], the figures for the IC50 in assay [1] and in assay [2] (setting [4]) were under 50 nM and under 2000 nM, respectively.
For the compound `CN[C@@H](C)C(=O)N[C@H](C(=O)N1C[C@@H]2C[C@H]1C(=O)N[C@@H](Cc1ccccc1)C(=O)N[C@H](C(=O)O)Cc1ccc(cc1)OCc1cn(nn1)[C@H]1C[C@@H](C(=O)N[C@@H](Cc3ccccc3)C(=O)N[C@H](C(=O)O)Cc3ccc(cc3)OCc3cn2nn3)N(C(=O)[C@@H](NC(=O)[C@H](C)NC)C2CCCCC2)C1)C1CCCCC1` [Compound 120], the IC50 in assay [1] is under 50 nM; in assay [2] (setting [4]), under 2000 nM.
On the same counts, the results for `CN[C@@H](C)C(=O)N[C@H](C(=O)N1C[C@@H]2C[C@H]1C(=O)N[C@@H](Cc1cccc(C(F)(F)F)c1)C(=O)N[C@H](C(=O)O)Cc1ccc(cc1)OCc1cn(nn1)[C@H]1C[C@@H](C(=O)N[C@@H](Cc3cccc(C(F)(F)F)c3)C(=O)N[C@H](C(=O)O)Cc3ccc(cc3)OCc3cn2nn3)N(C(=O)[C@@H](NC(=O)[C@H](C)NC)C2CCCCC2)C1)C1CCCCC1` [Compound 130] are under 50 nM and 2000 to 12000 nM.
For the compound `CC[C@H](NC(=O)[C@H](C)NC)C(=O)N1C[C@@H]2C[C@H]1C(=O)N[C@@H](Cc1ccccc1)C(=O)N[C@H](C(=O)O)Cc1ccc(cc1)OCc1cn(nn1)[C@H]1C[C@@H](C(=O)N[C@@H](Cc3ccccc3)C(=O)N[C@H](C(=O)O)Cc3ccc(cc3)OCc3cn2nn3)N(C(=O)[C@H](CC)NC(=O)[C@H](C)NC)C1` [Compound 117], the IC50 is under 50 nM in assay [1] and under 2000 nM in assay [2] (setting [4]).
`CN[C@@H](C)C(=O)N[C@H](C(=O)N1C[C@@H]2C[C@H]1C(=O)N[C@@H](Cc1ccc3ccccc3c1)C(=O)N[C@H](C(=O)O)Cc1ccc(cc1)OCc1ccc(cc1)-c1cn(nn1)[C@H]1C[C@@H](C(=O)N[C@@H](Cc3ccc4ccccc4c3)C(=O)N[C@H](C(=O)O)Cc3ccc(cc3)OCc3cn2nn3)N(C(=O)[C@@H](NC(=O)[C@H](C)NC)C(C)(C)C)C1)C(C)(C)C` [Compound 1000] returned an IC50 in assay [1] of 50 to 100 nM.
As for `CN[C@@H](C)C(=O)N[C@H](C(=O)N1C[C@@H]2C[C@H]1C(=O)N[C@@H](Cc1ccccc1)C(=O)NCc1cn(nn1)[C@H]1C[C@@H](C(=O)N[C@@H](Cc3ccccc3)C(=O)NCc3cn2nn3)N(C(=O)[C@@H](NC(=O)[C@H](C)NC)C(C)C)C1)C(C)C` [Compound 116], the IC50 in assay [2] (setting [4]) was under 2000 nM.
Turning to `CN[C@@H](C)C(=O)N[C@H](C(=O)N1C[C@@H]2CC1C(=O)N[C@@H](Cc1ccccc1)C(=O)N[C@H](C(=O)O)Cc1ccc(cc1)OCc1cn(nn1)[C@H]1C[C@@H](C(=O)N[C@@H](Cc3ccccc3)C(=O)NCc3cn2nn3)N(C(=O)[C@@H](NC(=O)[C@H](C)NC)C(C)C)C1)C(C)C` [Compound 135], the IC50 in assay [2] (setting [4]) was under 2000 nM.
For `CN[C@@H](C)C(=O)N[C@H](C(=O)N1CCN2C[C@H]1C(=O)N[C@@H](Cc1ccc3ccccc3c1)C(=O)N[C@H](C(=O)O)Cc1cn(nn1)CC(=O)N1CCN(C(=O)[C@@H](NC(=O)[C@H](C)NC)C(C)(C)C)[C@@H](C1)C(=O)N[C@@H](Cc1ccc3ccccc3c1)C(=O)N[C@H](C(=O)O)Cc1cn(nn1)CC2=O)C(C)(C)C` [Compound 1051], the IC50 is over 10 nM in assay [3] and over 100 nM on His-BIR3 (241-356, XIAP).
Regarding `CN[C@@H](C)C(=O)N[C@H](C(=O)N1C[C@@H]2C[C@H]1C(=O)N[C@@H](Cc1ccc3ccccc3c1)C(=O)N[C@H](C(=O)O)Cc1ccc(cc1)OCc1cn(nn1)[C@H]1C[C@@H](C(=O)N[C@@H](Cc3ccc4ccccc4c3)C(=O)N[C@H](C(=O)NCc3nnn[nH]3)Cc3ccc(cc3)OCc3cn2nn3)N(C(=O)[C@@H](NC(=O)[C@H](C)NC)C(C)(C)C)C1)C(C)(C)C` [Compound 1022], the IC50 in assay [3] was 1 to 10 nM; against His-BIR3 (241-356, XIAP), under 10 nM.
